Measurements published in patent publication US20120302614A1, “METHOD FOR IMPROVING CEREBRAL CIRCULATION OR TREATING A CEREBRAL BLOOD FLOW DISORDER” (OSAKA UNIVERSITY, priority 2007, published 2012).

Tests used:
[1] = Blood pressure, Test Example 2 (hydralazine as hypotensive control); format: in vivo, ddY mouse; details: after 4-week oral administration (day −1); olmesartan medoxomil 1 mg/kg/day, hydralazine 30 mg/kg/day
Procedure: Further, assessment of blood pressure was performed by the tail-cuff method (using a sphygmomanometer wound around the mouse tail) (Bunag R D, J Lab Clin Med. 1971, 78, 957-62) immediately before the start of administration of olmesartan medoxomil or distilled water (day −30), immediately before (day −1) and immediately after (day 2) the Aβ intracerebroventricular administration, and after completion of the behavioral test (day 14) (see FIG. 1). […] The dose of olmesartan medoxomil was set at a low level of 1 mg/kg/day in view of the experimental results of Test Example 1. […] The number of successive interceptions by the subject of the two adjoining beams on each bank is counted as locomotion score. • Long-term retention: On day 12 after the completion of the hidden platform test as a water maze test, mice are released into the water and the time it takes them to reach the platform is measured. • Working memory task: The platform is transferred and fixed at a new place. Mice are given four consecutive trials at intervals of as short as 20 seconds, and the time it takes them to reach the platform is measured. […] In order to eliminate this influence, swimming speed is measured.

[2] = tested on: Aβ injection model (Aβ 1-40 administered intracerebroventricularly); test: Morris water maze test in Aβ injection model, Test Example 1; format: in vivo, ddY mouse
Procedure: The therapeutic effect of olmesartan medoxomil in Aβ injection model and the dose dependency thereof were examined according to the following experimental schedule. [Experimental Schedule]: Prior to the experiment, 8-week old male ddY mice were administered olmesartan medoxomil (0.5 mg/kg/day, 1 mg/kg/day, 3 mg/kg/day or 6 mg/kg/day) or distilled water orally for four weeks (day −28 to −1). Then, Aβ 1-40 was administered to the mice intracerebroventricularly (day 0). (Although Aβ 1-40 was administered into one of the lateral ventricles in WO 2006/059777, Aβ 1-40 was administered in Test Example 1 to both lateral ventricles with an interval of one day between two administrations. Except for this point, Aβ 1-40 administration was performed in the same manner as in WO 2006/059777.) From one week thereafter, a behavioral test to evaluate cognitive function (Morris water maze test; Morris R et al., J Neuroscience Methods 1984, 11, 47-60) was performed (day 7 to 12). As a negative control, mice which had received oral administration of distilled water for four weeks were administered Aβ 40-1 intracerebroventricularly. The administration of olmesartan medoxomil or distilled water was continued until the end of the behavioral test. Measurements were performed as described below. • Hidden platform test: A platform is placed below the water surface of a water pool 150 cm in diameter filled with white water-colored. Mice are released into the water, and the time it takes them to reach the platform is measured. This trial is performed three times a day and for five consecutive days. As they learn, mice become able to reach the platform more quickly day by day. • Visible platform test: Mice are released into the water under such conditions that they can see the platform. The time it takes them to reach the platform is measured. • Probe test: The platform is removed, and mice are released and allowed to swim freely. Those mice with good learning/memory swim in the quadrant where the platform was located searching for the platform. The time they spent in that quadrant is measured. • Annnulus crossing: The number of times mice crossed the platform in the probe test is counted.

[3] = 0.5 mg/kg/day oral, versus Aβ 1-40 administration group
[4] = 1.0 mg/kg/day oral, versus Aβ 1-40 administration group

Q: What does the source list for `CCCc1nc(C(C)(C)O)c(C(=O)OCc2oc(=O)oc2C)n1Cc1ccc(-c2ccccc2-c2nnn[nH]2)cc1` [olmesartan medoxomil, (5-methyl-2-oxo-1,3-dioxolen-4-yl)methyl 4-(1-hydroxy-1-methylethyl)-2-propyl-1-[4-[2-(tetrazol-5-yl)phenyl]phenyl]methyl-imidazole-5-carboxylate]?
A: blood pressure compared to distilled water administration group [1]: lowered significantly; hidden platform test: escape latency (impairment in spatial memory and learning ability) [2, 3]: improved significantly; probe test: time spent in the target quadrant [2, 3]: significantly improved; hidden platform test: escape latency (impairment in spatial memory and learning ability) [2, 4]: improved significantly; number of annulus crossings [2, 4]: significantly improved; probe test: time spent in the target quadrant [2, 4]: significantly improved; hidden platform test: escape latency (impairment in spatial memory and learning ability) ([2]; 3.0 mg/kg/day oral, versus Aβ 1-40 administration group): improved significantly; improvement of impairment in spatial memory and learning evoked by Aβ 1-40 ([2]; high dose groups (3-6 mg/kg/day)): not observed; improvement of impairment in spatial memory and learning evoked by Aβ 1-40 ([2]; low dose groups (0.5-1 mg/kg/day)): observed; cognitive impairment (spatial memory and learning) in Morris water maze test, overall ([2]; oral administration for four weeks in advance of Aβ 1-40): significantly improved
